Source: PubChem BioAssay (NCI)
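Test compounds were applied to cells in 96-well plates for 48 hours at 5 doses. TGI: concentration producing complete growth inhibition.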

Legend:
Assay in all cases: inhibition of tumour cell growth, NCI panel, 48 h
[1] = tested on: SNB-19 CNS
[2] = tested on: K-562 leukemia
[3] = tested on: OVCAR-4 ovarian
[4] = tested on: SF-295 CNS
[5] = tested on: MDA-MB-231 breast
[6] = tested on: TK-10 renal
[7] = tested on: HT29 colon
[8] = tested on: NCI-H460 lung
[9] = tested on: HCT-116 colon
[10] = tested on: MCF7 breast
[11] = tested on: SF-539 CNS
[12] = tested on: HCT-15 colon
[13] = tested on: SK-MEL-2 melanoma
[14] = tested on: MDA-MB-435
[15] = tested on: A549 NSCLC
[16] = tested on: SK-MEL-5 melanoma
[17] = tested on: RXF 393 renal
[18] = tested on: BT-549 breast

SMILES	TGI [1] [µM]	TGI [2] [µM]	TGI [3] [µM]	TGI [4] [µM]	TGI [5] [µM]	TGI [6] [µM]	TGI [7] [µM]	TGI [8] [µM]	TGI [9] [µM]	TGI [10] [µM]	TGI [11] [µM]	TGI [12] [µM]	TGI [13] [µM]	TGI [14] [µM]	TGI [15] [µM]	TGI [16] [µM]	TGI [17] [µM]	TGI [18] [µM]
COC(=O)/C=C(/C=C1/C(C#N)=C(N)N(c2ccc(Cl)cc2)C1(C)/C(=C/C(=O)OC)C(=O)OC)C(=O)OC (stereo not given)	> 100	50.5	> 100	> 100	> 100	> 100	> 100	> 100	> 100	> 100	> 100	> 100	> 100	> 100	–	–	–	–
O=C1NC(=O)C(CCC(=O)c2ccc3ccccc3c2)C(=O)N1	> 100	> 100	> 100	> 100	–	> 100	> 100	> 100	> 100	–	> 100	> 100	> 100	–	> 100	> 100	> 100	–
Cc1cccc(C(C)C)c1NC(=O)/C(Cc1c([N+](=O)[O-])cccc1[N+](=O)[O-])=N/NC(=O)CC#N	> 100	> 100	–	> 100	–	> 100	> 100	> 100	> 100	–	> 100	> 100	> 100	–	> 100	> 100	> 100	–
O=C1c2ccccc2C(=O)c2c1cc(S(=O)(=O)O)c(O)c2O	–	> 100	> 100	> 100	–	> 100	> 100	> 100	> 100	–	> 100	> 100	> 100	–	> 100	–	> 100	–
COc1ccc2c(c1)C(=O)Cc1ccccc1CC2	> 100	> 100	> 100	> 100	–	> 100	> 100	> 100	> 100	–	> 100	> 100	> 100	–	> 100	> 100	> 100	–
c1ccc2c(c1)CC1=C(O2)c2ccccc2OC1	–	–	88.2	> 100	76.2	94.3	> 100	–	30.6	> 100	71.6	72.6	70.3	86.3	> 100	44.3	–	51.1
O=C(O)CCCn1nnc2c(=O)[nH][nH]c(=O)c21	> 100	> 100	> 100	> 100	> 100	> 100	> 100	> 100	> 100	> 100	–	> 100	> 100	> 100	> 100	> 100	–	> 100
O=C1N=C(SC2OC(CO)C(O)C(O)C2O)S/C1=C\c1ccccc1 (stereo not given)	> 100	> 100	–	> 100	> 100	> 100	> 100	> 100	–	> 100	> 100	> 100	> 100	> 100	> 100	> 100	> 100	> 100
O=c1[nH]c(=O)n(CCOc2ccccc2)cc1Nc1ccccc1	> 100	> 100	–	> 100	–	–	> 100	> 100	> 100	> 100	–	> 100	–	> 100	> 100	> 100	> 100	–
O=S(=O)(O)C1=C2Sc3ccccc3N=C2c2ccccc2C1	51.6	36.1	33.8	26.7	–	32.9	40	40	28.5	–	24.4	27.3	35.7	–	34.3	26.4	35.1	–
O=C1N[C@H]2c3c(Cl)sc(Cl)c3[C@@H](O)[C@H]2O1	> 100	> 100	–	–	> 100	> 100	> 100	> 100	> 100	> 100	> 100	> 100	> 100	> 100	> 100	> 100	> 100	> 100
Cc1cc2c(cc1C(=O)CCC(=O)O)CC1(C2)Cc2cc(C)c(C(=O)CCC(=O)O)cc2C1	> 100	> 100	> 100	> 100	> 100	> 100	> 100	> 100	> 100	> 100	> 100	> 100	> 100	> 100	> 100	> 100	> 100	–
Cc1c(C)c(C)n(C2OC(CO)C(O)C(O)C2O)c(=S)c1C#N (stereo not given)	> 100	> 100	> 100	> 100	> 100	> 100	> 100	> 100	> 100	> 100	> 100	> 100	> 100	> 100	> 100	> 100	> 100	–
CC1OC(OC2C(OC(=O)[C@]34CCC(C)(C)CC3C3=CCC5[C@@]6(C)C[C@H](O)[C@H](OC7OC(CO)C(O)C(O)C7N)[C@@](C)(C(=O)O)C6CC[C@@]5(C)C3(C)CC4)OCC(O)C2O)C(O)C(O)C1OC1OCC(O)C(O)C1O (stereo not given in full)	> 100	> 100	–	> 100	–	> 100	> 100	> 100	–	–	> 100	> 100	> 100	–	> 100	> 100	> 100	–
OC1(c2ccccc2)C2CCN(CC2)C1CN1CCOCC1 (stereo not given)	> 100	> 100	> 100	> 100	> 100	> 100	> 100	> 100	> 100	> 100	> 100	> 100	> 100	> 100	> 100	> 100	> 100	–
CCOC(=O)CCCNC(=O)CCCCC(=O)N(C)C	> 100	> 100	–	> 100	> 100	> 100	> 100	> 100	> 100	> 100	> 100	> 100	> 100	> 100	> 100	> 100	–	> 100
CN(C)/N=C(/CC(O)(C(F)(F)F)C(F)(F)F)c1ccc([N+](=O)[O-])cc1	> 100	> 100	> 100	> 100	> 100	–	> 100	> 100	> 100	–	> 100	> 100	> 100	> 100	> 100	> 100	> 100	–
O=C(Cn1c2c(c3ccccc31)CCCC2)N1CCCC1	> 100	–	73.3	> 100	–	> 100	> 100	> 100	> 100	> 100	> 100	> 100	> 100	> 100	> 100	> 100	–	> 100
Cc1ccc(S(=O)(=O)c2ccsc2NC(=O)C(F)(F)F)cc1	> 100	–	> 100	> 100	56.2	> 100	> 100	> 100	95.3	> 100	> 100	> 100	94.7	> 100	> 100	44.4	–	> 100
CCOCc1c(C)cc(C)c(C2C(C(=O)c3ccccc3)N3c4ccccc4C=CC3C2(C#N)C(=O)OCC)c1C (stereo not given)	> 100	> 100	> 100	> 100	–	–	> 100	> 100	> 100	> 100	–	> 100	–	> 100	–	33.2	> 100	75.8
O=C1CSSCC(=O)Nc2ccccc2N1	> 100	> 100	> 100	> 100	> 100	> 100	> 100	> 100	> 100	–	> 100	> 100	> 100	> 100	> 100	> 100	> 100	> 100
CC(=O)Oc1cc(Cl)c(C)c2c1[C@H]1CC[C@]3(C)[C@@H](OC(C)=O)CC[C@H]3[C@@H]1CC2	> 100	> 100	–	> 100	> 100	> 100	> 100	> 100	> 100	> 100	> 100	> 100	–	> 100	> 100	> 100	> 100	> 100
CCOC(=O)c1c(NC(=O)c2cccs2)sc2c1CCC2	> 100	> 100	–	> 100	> 100	> 100	> 100	> 100	> 100	> 100	> 100	> 100	> 100	–	> 100	> 100	> 100	> 100
O=C1CCC2(c3ccccc3)Nc3ccncc3N12 (stereo not given)	> 10	> 10	> 10	> 10	> 10	> 10	> 10	> 10	> 10	> 10	> 10	> 10	> 10	> 10	> 10	–	–	> 10
NC(=S)N1N=C2c3ccccc3CC[C@@H]2[C@@H]1c1ccccc1	> 100	> 49.1	> 100	> 42.2	–	> 68	15.6	> 42.2	19.1	–	22.3	24.6	> 48.5	–	> 60.2	27.1	41.5	–
Cc1ccc(/C(Cl)=C/C=C(C#N)C#N)cc1	24	19.4	8.74	26.9	6.33	13.2	–	> 100	–	> 100	6.37	4.79	> 100	6.94	56	4.01	7.66	–
COc1ccccc1N(CN1C(=O)CCC1C(=O)O)C(C)=O (stereo not given)	> 100	> 100	> 100	> 100	> 100	> 100	> 100	> 100	> 100	> 100	> 100	> 100	> 100	> 100	> 100	> 100	> 100	–
O/N=C/c1ncccc1C1OCCO1	> 100	> 100	> 100	> 100	–	> 100	> 100	> 100	> 100	–	> 100	> 100	> 100	–	> 100	> 100	> 100	–
O=C(NC12CC3CC(CC(F)(C3)C1)C2)c1ccccc1	> 100	> 100	–	–	–	> 100	> 100	> 100	> 100	–	> 100	–	> 100	–	> 100	–	> 100	–
CC(C)NC(NC(C)C)=C(S(=O)(=O)C(F)(F)C(F)(F)C(F)(F)C(F)(F)F)S(=O)(=O)C(F)(F)C(F)(F)C(F)(F)C(F)(F)F	> 100	> 100	> 100	> 100	> 100	> 100	> 100	> 100	> 100	> 100	> 100	> 100	> 100	> 100	> 100	> 100	–	> 100
